From PubChem BioAssay (NCI)
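Grown in 96-well plates, cells were treated for 48 hours with each compound at five concentrations. Insufficient inhibition: endpoint recorded as highest concentration tested. At the GI50, growth is halved. TGI: total growth inhibition.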

How the values were obtained:
Assay in all cases: DTP human tumour cell line panel, 48 h
NCI-H226 lung = tested on: NCI-H226 lung
NCI-H23 lung = tested on: NCI-H23 lung
NCI-H460 lung = tested on: NCI-H460 lung
NCI-H522 lung = tested on: NCI-H522 lung
NCI/ADR-RES ovarian = tested on: NCI/ADR-RES ovarian
OVCAR-3 ovarian = tested on: OVCAR-3 ovarian
OVCAR-4 ovarian = tested on: OVCAR-4 ovarian
OVCAR-5 ovarian = tested on: OVCAR-5 ovarian
OVCAR-8 ovarian = tested on: OVCAR-8 ovarian
PC-3 prostate = tested on: PC-3 prostate
RPMI-8226 leukemia = tested on: RPMI-8226 leukemia
RXF 393 renal = tested on: RXF 393 renal
SF-268 CNS = tested on: SF-268 CNS
SF-295 CNS = tested on: SF-295 CNS
SF-539 CNS = tested on: SF-539 CNS
SK-MEL-2 melanoma = tested on: SK-MEL-2 melanoma
SK-MEL-28 melanoma = tested on: SK-MEL-28 melanoma
SK-MEL-5 melanoma = tested on: SK-MEL-5 melanoma
SK-OV-3 ovarian = tested on: SK-OV-3 ovarian
SN12C renal = tested on: SN12C renal
SNB-19 CNS = tested on: SNB-19 CNS
SNB-75 CNS = tested on: SNB-75 CNS
SW-620 colon = tested on: SW-620 colon
T-47D breast = tested on: T-47D breast
TK-10 renal = tested on: TK-10 renal
U251 CNS = tested on: U251 CNS
UACC-257 melanoma = tested on: UACC-257 melanoma
UACC-62 melanoma = tested on: UACC-62 melanoma
UO-31 renal = tested on: UO-31 renal

SMILES: COc1ccc2[nH]c(-c3ccccc3)cc2c1
- TGI (NCI-H226 lung): > 100 µM
- GI50 (NCI-H23 lung): 97.9 µM
- TGI (NCI-H23 lung): > 100 µM
- GI50 (NCI-H460 lung): > 100 µM
- TGI (NCI-H460 lung): > 100 µM
- GI50 (NCI-H522 lung): 73.9 µM
- TGI (NCI-H522 lung): > 100 µM
- GI50 (NCI/ADR-RES ovarian): > 100 µM
- TGI (NCI/ADR-RES ovarian): > 100 µM
- GI50 (OVCAR-3 ovarian): > 100 µM
- TGI (OVCAR-3 ovarian): > 100 µM
- GI50 (OVCAR-4 ovarian): 92.3 µM
- TGI (OVCAR-4 ovarian): > 100 µM
- GI50 (OVCAR-5 ovarian): > 100 µM
- TGI (OVCAR-5 ovarian): > 100 µM
- GI50 (OVCAR-8 ovarian): > 100 µM
- TGI (OVCAR-8 ovarian): > 100 µM
- GI50 (PC-3 prostate): > 100 µM
- TGI (PC-3 prostate): > 100 µM
- GI50 (RPMI-8226 leukemia): 43.2 µM
- TGI (RPMI-8226 leukemia): > 100 µM
- GI50 (RXF 393 renal): > 100 µM
- TGI (RXF 393 renal): > 100 µM
- GI50 (SF-268 CNS): > 100 µM
- TGI (SF-268 CNS): > 100 µM
- GI50 (SF-295 CNS): 84.7 µM
- TGI (SF-295 CNS): > 100 µM
- GI50 (SF-539 CNS): > 100 µM
- TGI (SF-539 CNS): > 100 µM
- GI50 (SK-MEL-2 melanoma): > 100 µM
- TGI (SK-MEL-2 melanoma): > 100 µM
- GI50 (SK-MEL-28 melanoma): > 100 µM
- TGI (SK-MEL-28 melanoma): > 100 µM
- GI50 (SK-MEL-5 melanoma): 86.6 µM
- TGI (SK-MEL-5 melanoma): > 100 µM
- GI50 (SK-OV-3 ovarian): > 100 µM
- TGI (SK-OV-3 ovarian): > 100 µM
- GI50 (SN12C renal): > 100 µM
- TGI (SN12C renal): > 100 µM
- GI50 (SNB-19 CNS): > 100 µM
- TGI (SNB-19 CNS): > 100 µM
- GI50 (SNB-75 CNS): > 100 µM
- TGI (SNB-75 CNS): > 100 µM
- GI50 (SW-620 colon): > 100 µM
- TGI (SW-620 colon): > 100 µM
- GI50 (T-47D breast): 19.3 µM
- TGI (T-47D breast): > 100 µM
- GI50 (TK-10 renal): > 100 µM
- TGI (TK-10 renal): > 100 µM
- GI50 (U251 CNS): > 100 µM
- TGI (U251 CNS): > 100 µM
- GI50 (UACC-257 melanoma): > 100 µM
- TGI (UACC-257 melanoma): > 100 µM
- GI50 (UACC-62 melanoma): 92.5 µM
- TGI (UACC-62 melanoma): > 100 µM
- GI50 (UO-31 renal): > 100 µM
- TGI (UO-31 renal): > 100 µM
